Columns and labels:
[1] = system: IL-6 production induced by lipopolysaccharide (LPS) in human corneal epithelial cells; experiment: Evaluation test for GR agonist activity: inhibition of LPS-induced IL-6 production in human corneal epithelial cells (HCE-T); assay type: cell-based; settings: Corneal epithelial cell, 10 μL of 100 μM test compound solution per well, 4 hours incubation, efficacy relative to DEX
Outline: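 SV40-immortalized HCE-T cells were treated with test compound (100 μM solution, stock before dilution into well) plus LPS (1 μg/mL solution, likewise pre-dilution) for 4 hours in 10% FBS-DMEM/F12. IL-6 in supernatants was measured by HTRF. Inhibition was calculated relative to LPS-plus-DMSO and no-LPS controls, and efficacy was expressed as % of DEX inhibition.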

[2] = system: choroidal neovascularization (CNV) model in rats; experiment: Evaluation test for inhibitory effect of choroidal neovascularization (laser induced CNV model in rats); assay type: in vivo; settings: Brown Norway rats, 1% (w/v) suspension eye drops four times a day or 20 mg/mL subconjunctival injection (route not given), vs vehicle, mean of 7-8 eyes in 4 rats
Procedure: The choroidal neovascularization (CNV) model in rats is known as one of the popular methods for evaluating the CNV inhibitory effect of drugs. This method is reported in Graefe's Arch. Cli. Exp. Ophthalmol., 235, 313-319 (1997). According to this method, the CNV examinations were performed to evaluate the CNV inhibitory effect of test compounds by comparing the incidence rates of CNV in vehicle group (control group) with test compound-treated groups.
For eye drop administration, a 1% (w/v) test compound suspension was prepared by adding 0.5% polysorbate 80/saline to the test compound. For subconjunctival injection, a 20 mg/mL test compound suspension was prepared by adding 0.5% hydrogenated castor oil/saline to the test compound.
1) Brown Norway male rats (7-8 weeks, 140-240 g) were anesthetized with intramuscular injection (1 mL/kg) of the mixed solution (5% ketamine HCl: 2% xylazine HCl=7:1).
2) After mydriasis using tropicamide phenylephrine hydrochloride eye drops (trade name Mydrin P), laser photocoagulation of bruch's membrane in rats was performed with krypton laser photocoagulation machine. Laser irradiation was performed at 8-9 points per eye avoiding thick retinal blood vessels in ocular fundus and focusing on the depth of retina. The conditions were 100 μm spot size, 100 mW power, 0.1 second duration.
3) After laser photocoagulation, photographs of ocular fundus were taken and the laser photocoagulation (laser irradiation) points were confirmed.
1) In case of eye drops administration, a test compound suspension was administrated four times a day from laser irradiation day (the 1st day) to the 8th day. In case of subconjunctival injection, a 50 μL test compound suspension was injected into conjunctivae just after laser irradiation.
2) In vehicle group (control group), 0.5% polysorbate 80/saline or 0.5% hydrogenated castor oil/saline was used instead of a test compound suspension. And the test was performed according to the method 1).
1) 7 days after laser irradiation, 0.1 mL of 10% fluorescein was injected into rat tail vein and fluorescein angiography was performed.
2) When the fluorescent leakage was not detected in the fluorescent angiography, the spot was judged to be a negative spot. When the fluorescent leakage was detected, the spot was judged to be a positive spot. When the fluorescent leakage was detected as a little leakage, two spots were counted as one positive spot.
3) The neovascular incidence rate was calculated according to the equation 1. According to the equation 2, the ratio of neovascular incidence rate in test compound group to vehicle group was calculated. Neovascular incidence rate(%)=(Positive spots/all spots)×100 (Equation 1) Angiogenic inhibition ratio in test compound group(%)=(1−Ax/Ao)×100 (Equation 2)
Ao: Neovascular incidence rate in vehicle group (control group)
Ax: Neovascular incidence rate in test compound group

CCCC(=O)Oc1ccc(-c2ccc3c(c2COc2cc(F)ccc2C)C(C)=CC(C)(C)N3)c(OC)c1 [Compound 1-9, 6-(4-Butyryloxy-2-methoxyphenyl)-5-(5-fluoro-2-methylphenoxymethyl)-2,2,4-trimethyl-1,2-dihydroquinoline] was tested. Which Emax [1] did it give?
The Emax was 79%.

And the “Angiogenic inhibition ratio (%)” value [2]?
Its value is 31%.

With COc1cc(OC(=O)C(C)C)ccc1-c1ccc2c(c1COc1cc(F)ccc1C)C(C)=CC(C)(C)N2 [Compound 1-14, 5-(5-Fluoro-2-methylphenoxymethyl)-6-(4-isobutyryloxy-2-methoxyphenyl)-2,2,4-trimethyl-1,2-dihydroquinoline] as the molecule, how does the Emax [1] read?
The Emax was 79%.

And the “Angiogenic inhibition ratio (%)” value [2]?
The value was 46%.

Which results are given for COc1ccc(OC(=O)c2ccco2)cc1-c1ccc2c(c1COc1cc(F)ccc1C)C(C)=CC(C)(C)N2 [Compound 1-17, 5-(5-Fluoro-2-methylphenoxymethyl)-6-[5-(furan-2-ylcarbonyloxy)-2-methoxyphenyl]-2,2,4-trimethyl-1,2-dihydroquinoline]?
Emax [1]: 84%; Angiogenic inhibition ratio (%) [2]: 35%

How did the Emax [1] turn out when COc1ccc(OC(=O)c2cccnc2)cc1-c1ccc2c(c1COc1cc(F)ccc1C)C(C)=CC(C)(C)N2 [Compound 1-19, 5-(5-Fluoro-2-methylphenoxymethyl)-6-[2-methoxy-5-(pyridin-3-ylcarbonyloxy)phenyl]-2,2,4-trimethyl-1,2-dihydroquinoline] was run?
Its Emax is 78%.

What about the “Angiogenic inhibition ratio (%)” value [2] of the same molecule?
Its value is 30%.

Which Emax [1] does the source give for COc1cc(OC(=O)c2ccoc2)ccc1-c1ccc2c(c1COc1cc(F)ccc1C)C(C)=CC(C)(C)N2 [Compound 1-25, 5-(5-Fluoro-2-methylphenoxymethyl)-6-[4-(furan-3-ylcarbonyloxy)-2-methoxyphenyl]-2,2,4-trimethyl-1,2-dihydroquinoline] here?
Its Emax is 83%.

And the “Angiogenic inhibition ratio (%)” value [2]?
Its value is 50%.

With COc1cc(OC(=O)c2ccncc2)ccc1-c1ccc2c(c1COc1cc(F)ccc1C)C(C)=CC(C)(C)N2 [Compound 1-33, 5-(5-Fluoro-2-methylphenoxymethyl)-6-[2-methoxy-4-(pyridin-4-ylcarbonyloxy)phenyl]-2,2,4-trimethyl-1,2-dihydroquinoline] as the molecule, how does the Emax [1] read?
Its Emax is 82%.

What about the “Angiogenic inhibition ratio (%)” value [2] of the same molecule?
The value was 29%.

What does the source list for COc1cc(OC(=O)c2cccnc2C)ccc1-c1ccc2c(c1COc1cc(F)ccc1C)C(C)=CC(C)(C)N2 [Compound 1-49, 5-(5-Fluoro-2-methylphenoxymethyl)-6-[2-methoxy-4-(2-methylpyridin-3-ylcarbonyloxy)phenyl]-2,2,4-trimethyl-1,2-dihydroquinoline]?
Emax [1]: 96%; Angiogenic inhibition ratio (%) [2]: 23%

Which results are given for COc1cc(OS(=O)(=O)C(C)C)ccc1-c1ccc2c(c1COc1cc(F)ccc1C)C(C)=CC(C)(C)N2 [Compound 4-5, 5-(5-Fluoro-2-methylphenoxymethyl)-6-(4-isopropylsulfonyloxy-2-methoxyphenyl)-2,2,4-trimethyl-1,2-dihydroquinoline]?
Emax [1]: 90%; Angiogenic inhibition ratio (%) [2]: 38%

With COc1ccc([N+](=O)[O-])cc1OCc1c(-c2ccc(OS(=O)(=O)C3CC3)cc2OC)ccc2c1C(C)=CC(C)(C)N2 [Compound 4-8, 6-(4-Cyclopropylsulfonyloxy-2-methoxyphenyl)-5-(2-methoxy-5-nitrophenoxymethyl)-2,2,4-trimethyl-1,2-dihydroquinoline] as the molecule, how does the Emax [1] read?
Its Emax is 78%.

What about the “Angiogenic inhibition ratio (%)” value [2] of the same molecule?
Its value is 26%.

For CCCS(=O)(=O)Oc1ccc(-c2ccc3c(c2COC(=O)c2ccc(C)s2)C(C)=CC(C)(C)N3)c(OC)c1 [Compound 4-27, 6-(2-Methoxy-4-propylsulfonyloxyphenyl)-5-(5-methylthiophen-2-ylcarbonyloxymethyl)-2,2,4-trimethyl-1,2-dihydroquinoline], which Emax [1] is on record?
The Emax was 101%.

For COc1cc(OS(=O)(=O)C(C)C)ccc1-c1ccc2c(c1COC(=O)c1ccc(C)s1)C(C)=CC(C)(C)N2 [Compound 4-29, 6-(4-Isopropylsulfonyloxy-2-methoxyphenyl)-5-(5-methylthiophen-2-ylcarbonyloxymethyl)-2,2,4-trimethyl-1,2-dihydroquinoline], which Emax [1] is on record?
Its Emax is 92%.

Which Emax [1] does the source give for COc1cc(OS(=O)(=O)C2CCCC2)ccc1-c1ccc2c(c1COC(=O)c1ccc(C)s1)C(C)=CC(C)(C)N2 [Compound 4-30, 6-(4-Cyclopentylsulfonyloxy-2-methoxyphenyl)-5-(5-methylthiophen-2-ylcarbonyloxymethyl)-2,2,4-trimethyl-1,2-dihydroquinoline] here?
Its Emax is 93%.

With CCS(=O)(=O)Oc1ccc(-c2ccc3c(c2COC(=O)c2ccc(C)s2)C(C)=CC(C)(C)N3)c(OC)c1 [Compound 4-32, 6-(4-Ethylsulfonyloxy-2-methoxyphenyl)-5-(5-methylthiophen-2-ylcarbonyloxymethyl)-2,2,4-trimethyl-1,2-dihydroquinoline] as the molecule, how does the Emax [1] read?
Its Emax is 77%.

For COc1cc(OS(=O)(=O)C2CC2)ccc1-c1ccc2c(c1COC(=O)c1ccc(C)s1)C(C)=CC(C)(C)N2 [Compound 4-34, 6-(4-Cyclopropylsulfonyloxy-2-methoxyphenyl)-5-(5-methylthiophen-2-ylcarbonyloxymethyl)-2,2,4-trimethyl-1,2-dihydroquinoline], which Emax [1] is on record?
The Emax was 86%.

COc1cc(OC(=O)N(C)C)ccc1-c1ccc2c(c1COc1cc(F)ccc1C)C(C)=CC(C)(C)N2 [Compound 6-3, 6-(4-Dimethylaminocarbonyloxy-2-methoxyphenyl)-5-(5-fluoro-2-methylphenoxymethyl)-2,2,4-trimethyl-1,2-dihydroquinoline] was tested. Which Emax [1] did it give?
The Emax was 83%.

What about the “Angiogenic inhibition ratio (%)” value [2] of the same molecule?
Its value is 38%.

Which Emax [1] does the source give for CCN(CCN(C)C)C(=O)Oc1ccc(-c2ccc3c(c2COc2cc(F)ccc2C)C(C)=CC(C)(C)N3)c(OC)c1 [Compound 6-20, 6-[4-[N-(2-Dimethylaminoethyl)-N-ethylaminocarbonyloxy]-2-methoxyphenyl]-5-(5-fluoro-2-methylphenoxymethyl)-2,2,4-trimethyl-1,2-dihydroquinoline] here?
The Emax was 79%.

With COc1cc(OC(=O)N2CCOCC2)ccc1-c1ccc2c(c1COC(=O)c1ccc(C)s1)C(C)=CC(C)(C)N2 [Compound 6-26, 6-[2-Methoxy-4-(morpholin-4-ylcarbonyloxy)phenyl]-5-(5-methylthiophen-2-ylcarbonyloxymethyl)-2,2,4-trimethyl-1,2-dihydroquinoline] as the molecule, how does the Emax [1] read?
The Emax was 84%.

With COc1cc(OC(=O)Nc2ccc(Cl)cc2)ccc1-c1ccc2c(c1COC(=O)c1ccc(C)s1)C(C)=CC(C)(C)N2 [Compound 6-27, 6-[4-(4-Chlorophenylaminocarbonyloxy)-2-methoxyphenyl]-5-(5-methylthiophen-2-ylcarbonyloxymethyl)-2,2,4-trimethyl-1,2-dihydroquinoline] as the molecule, how does the Emax [1] read?
Its Emax is 94%.

With COc1cc(OC(=O)N(C)C)ccc1-c1ccc2c(c1COc1cc([N+](=O)[O-])ccc1C)C(C)=CC(C)(C)N2 [Compound 6-33, 6-(4-Dimethylaminocarbonyloxy-2-methoxyphenyl)-5-(2-methyl-5-nitrophenoxymethyl)-2,2,4-trimethyl-1,2-dihydroquinoline] as the molecule, how does the Emax [1] read?
Its Emax is 78%.

COc1cc(OC(=O)N(C)C)ccc1-c1ccc2c(c1COC(=O)c1ccc(C)s1)C(C)=CC(C)(C)N2 [Compound 6-37, 6-(4-Dimethylaminocarbonyloxy-2-methoxyphenyl)-5-(5-methylthiophen-2-ylcarbonyloxymethyl)-2,2,4-trimethyl-1,2-dihydroquinoline] was tested. Which Emax [1] did it give?
Its Emax is 85%.
